Source: US20260055060A1, “USE OF (ISOINDOLIN-2-YL)(4-HYDROXY-3-(ISOINDOLINE-2-CARBONYL)PHENYL)METHANONES IN THE TREATMENT OF TUMOR NECROSIS FACTOR RECEPTOR-ASSOCIATED PROTEIN 1 DYSFUNCTION” (UNIVERSITY OF NOTRE DAME DU LAC, priority 2022, published 2026)
Entries after “also recorded” stand apart in the source; their conditions may differ.

Experiments:
[1] = molecular target: T1, Hsp90β (Homo sapiens, UniProt P08238); assay: Fluorescence polarization assay (FITC-GDA tracer displacement), Hsp90β; assay type: binding; conditions: Table 1; concentration at which tracer 50% displaced, reported as Kd
T1 construct: 50 μL of assay buffer containing 10 nM of Hsp90, Hsp90a, Grp94, or Trap1 were added to each well
T1 sequence (P08238 whole entry): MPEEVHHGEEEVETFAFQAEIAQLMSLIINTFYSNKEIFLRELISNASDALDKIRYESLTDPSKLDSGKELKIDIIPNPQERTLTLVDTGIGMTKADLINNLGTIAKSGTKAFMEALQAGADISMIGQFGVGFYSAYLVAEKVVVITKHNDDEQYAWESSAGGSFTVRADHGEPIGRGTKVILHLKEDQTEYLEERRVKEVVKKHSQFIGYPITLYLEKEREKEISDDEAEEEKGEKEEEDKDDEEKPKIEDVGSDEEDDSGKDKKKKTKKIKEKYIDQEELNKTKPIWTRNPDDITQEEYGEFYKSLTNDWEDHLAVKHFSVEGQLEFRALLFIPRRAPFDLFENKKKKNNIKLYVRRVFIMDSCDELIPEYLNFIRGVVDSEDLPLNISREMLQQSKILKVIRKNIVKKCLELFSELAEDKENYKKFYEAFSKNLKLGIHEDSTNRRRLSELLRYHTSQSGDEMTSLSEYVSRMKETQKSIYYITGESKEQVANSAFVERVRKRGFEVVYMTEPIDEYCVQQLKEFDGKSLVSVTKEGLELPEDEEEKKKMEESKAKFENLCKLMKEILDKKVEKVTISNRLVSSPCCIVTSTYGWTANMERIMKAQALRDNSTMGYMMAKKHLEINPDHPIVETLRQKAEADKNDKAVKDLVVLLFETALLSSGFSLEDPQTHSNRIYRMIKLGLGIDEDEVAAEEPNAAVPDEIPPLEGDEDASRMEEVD

[2] = test system: 22RV1 cells; assay: Seahorse XFe oxygen consumption rate, 22Rv1; assay type: cell-based; conditions: 6 h treatment, significant at 25 μM and 50 μM
[3] = test system: HeLa cells; assay: Cellular ATP production rate (glycolysis vs mitochondrial); assay type: cell-based; conditions: oligomycin and rot/AA injections
[4] = test system: HeLa cells; assay: Mitochondrial fuel oxidation with BPTES, UK5099 and etomoxir; assay type: cell-based
[5] = test system: HeLa cells; assay: Seahorse mitochondrial function (oligomycin, FCCP, rot/AA injections), HeLa; assay type: cell-based; conditions: 6 hr pretreatment
[6] = test system: TRAP1-dependent client proteins NDUFS1, glutaminase-1, and Sirt3; assay: Western blot for degradation of TRAP1 client proteins; assay type: cell-based; conditions: for degradation of TRAP1-dependent client proteins NDUFS1, glutaminase-1, Sirt3: HeLa and 22Rv1 cells, 6 h treatment
[7] = test system: HeLa cells; assay: TMRM staining for mitochondrial membrane potential; assay type: cell-based; conditions: 6 h treatment, 25 μM and 50 μM
[8] = test system: HeLa cells; assay: Seahorse XFe oxygen consumption rate, HeLa; assay type: cell-based; conditions: 6 h treatment, significant at 25 μM and 50 μM
[9] = test system: 22RV1 cells; assay: Seahorse mitochondrial function (oligomycin, FCCP, rot/AA injections), 22Rv1; assay type: cell-based; conditions: 6 hr pretreatment
[10] = test system: cytosolic Hsp90 clients, Akt and Cdk4, Hsp70; assay: Western blot for cytosolic Hsp90 clients and Hsp70 induction; assay type: cell-based; conditions: HeLa and 22Rv1 cells, 6 h treatment
[11] = test system: TRAP1-dependent client proteins NDUFS1, glutaminase-1, and Sirt3; conditions: literature report; cited from earlier work

Row | Kd [1] [nM] | Compound | oxygen consumption rate / OXPHOS [2] | cellular ATP production via oxidative phosphorylation or glycolysis [3] | mitochondrial glutamine, fatty acid, and glucose oxidation ([4]; 6 hr treatment, 32 at 50 μM) | response of basal OCR to BPTES, UK5099, etomoxir ([4]; HeLa cells, 2 hr incubation, 50 μM) | proton leak, maximal respiration, non-mitochondrial O2 consumption, spare respiratory capacity [5] | degradation of TRAP1-dependent client proteins NDUFS1, glutaminase-1, Sirt3 [6] | expression of TRAP1 clients NDUFS1, glutaminase-1, Sirt3 ([6]; HeLa cells, 2 hr treatment, up to 50 μM) | TMRM fluorescence / mitochondrial membrane potential [7] | oxygen consumption rate / OXPHOS [8] | proton leak, maximal respiration, non-mitochondrial O2 consumption, spare respiratory capacity [9] | degradation of cytosolic Hsp90 clients Akt and Cdk4, induction of Hsp70 [10] | degradation of TRAP1 client proteins (reported by Yoon, N. G. et al.) [11]
1 | 1000 ± 50 | O=C(c1cc(C(=O)N2Cc3ccccc3C2)c(O)cc1O)N1Cc2ccccc2C1 [Compound 4] | – | – | – | – | – | – | – | – | – | – | – | –
2 | – | O=C(c1ccc(O)c(C(=O)N2Cc3ccc(OCCC[P+](c4ccccc4)(c4ccccc4)c4ccccc4)cc3C2)c1)N1Cc2cccc(F)c2C1 [Compound 35, (3-((2-(5-(4-Fluoroisoindoline-2-carbonyl)-2-hydroxybenzoyl)isoindolin-5-yl)oxy)propyl)triphenylphosphonium hexafluorophosphate(V)] | significant dose-dependent decrease in OXPHOS; also recorded: statistically significant reduction of oxygen consumption; also recorded: inhibit OXPHOS | alter cellular metabolism towards glycolysis | reduced OCR (oxygen consumption rate) and prevented measurement | unresponsive to BPTES, UK5099, and etomoxir | decreased | dose-dependent and selective degradation | dose-dependently decreased | marked decrease in TMRM fluorescence; also recorded: disrupt the mitochondrial membrane potential | statistically significant reduction of oxygen consumption; also recorded: significant dose-dependent decrease in OXPHOS; also recorded: inhibit OXPHOS | decreased | without inducing the degradation | –
3 | – | COc1cccc2c1CN(C(=O)c1ccc(O)c(C(=O)N3Cc4ccc(OCCC[P+](c5ccccc5)(c5ccccc5)c5ccccc5)cc4C3)c1)C2 [Compound 36, (3-((2-(2-Hydroxy-5-(4-methoxyisoindoline-2-carbonyl)benzoyl)isoindolin-5-yl)oxy)propyl)triphenylphosphonium hexafluorophosphate(V)] | significant dose-dependent decrease in OXPHOS; also recorded: statistically significant reduction of oxygen consumption; also recorded: inhibit OXPHOS | alter cellular metabolism towards glycolysis | – | – | decreased | dose-dependent and selective degradation | – | marked decrease in TMRM fluorescence; also recorded: disrupt the mitochondrial membrane potential | statistically significant reduction of oxygen consumption; also recorded: significant dose-dependent decrease in OXPHOS; also recorded: inhibit OXPHOS | decreased | without inducing the degradation | –
4 | – | COC1=C(OC)C(=O)C(CCCCCCCCCC[P+](c2ccccc2)(c2ccccc2)c2ccccc2)=C(C)C1=O [MitoQ, reference compound] | – | – | – | – | decreased | – | – | marked decrease in TMRM fluorescence | – | decreased | – | induce the degradation of these clients
5 | – | gamitrinib [reference compound] | – | – | – | – | decreased | – | – | marked decrease in TMRM fluorescence | – | decreased | pan-Hsp90 inhibition | –
